{"source": "patent US12370202B2", "about": "“Methods and compositions for inhibiting the NLRP3 inflammasome and/or LON protease” (TRITERPENOID THERAPEUTICS, INC., priority 2019, dated 2025)", "system": "primary cultures of patient-derived GBM cells", "test": "Cell viability in primary cultures of human GBM", "assay_type": "cell-based", "procedure": "To define the capacity of CDDO-2P-IM to suppress the growth and viability of GBM, several well-characterized human GBM cell lines (U251, U-87MG, LN227, Gli36Δ5), primary cultures of patient-derived GBM cells (UVM04, D028), and normal human astrocytes (provided by Dr. Arti Gaur, Dartmouth College) were utilized.\nThe activity of CDDO-2P-IM in cultures of human GBM was assessed and similar nanomolar (nM) potency was observed. […] These changes in confluence observed by Incucyte® corresponded with a reduction in cell viability. Doses of CDDO-2P-IM that result in complete cell death of the LN227, U251 and U-87MG cell lines had no effect on the viability of primary human astrocytes in vitro (not shown).", "data": [{"smiles": "CC1(C)CC[C@]2(C(=O)n3cnc(-c4ccccn4)c3)CC[C@]3(C)[C@H](C(=O)C=C4[C@@]5(C)C=C(C#N)C(=O)C(C)(C)[C@@H]5CC[C@]43C)[C@@H]2C1", "note": "[CDDO-2P-Im, 1-[2-Cyano-3,12-dioxooleana-1,9(11)-dien-28-oyl]-4(-pyridin-2-yl)-1H-imidazole]", "values": [{"measurement": "concentrations at which a significant reduction in cell viability was observed", "result": "below 100 nM"}]}]}
